In patent EP1242382B1, “TRICYCLIC PROTEIN KINASE INHIBITORS” (Wyeth, priority 1999, dated 2001):

How the values were obtained:
[1] = target: T1, Raf-1 (c-Raf) (Homo sapiens, UniProt P04049); experiment: Raf1 kinase cascade assay procedure; assay type: biochemical
T1 construct: Sf9 insect cell lysate containing full length 6his-tagged recombinant human c-Raf; host or cells: c-Raf: Sf9 insect cell lysate; MEK1 and MAPK: E. coli
Procedure: (Specific Activity: ~200U/ml). Human Non-active Mek-1-GST and human GST-MAP kinase (recombinant proteins produced in E. coli).
• 1. Assay Dilution Buffer (ADB): 20mM MOPS, pH 7.2, 25mM β-glycerol phosphate, 5mM EGTA, 1mM sodium orthovanadate, 1mM dithiothreitol. • 2. Magnesium/ATP Cocktail: 500µM cold ATP and 75 mM magnesium chloride in ADB. • 4. Active Kinase: Human Active c-Raf: Use at 0.4U per assay point • 5. Non-active GST-MEK1: Use at 0.1µg per assay point. • 6. Non-active GST-p42 MAP Kinase: Use at 1.0 µg per assay point
• 1. TBST - Tris (50 mM, pH 7.5), NaCl (150 mM), Tween-20 (0.05 %) • 2. Superblock (Pierce) • 3. Anti-GST Ab (Pharmacia) • 4. Anti-Phospho MAPK (Sigma) • 5. Anti-Mouse Ab / Europium conjugate (Wallac)
First Stage: c-Raf Dependent Activation of GST-MEK and GST-MAPK • 1. Add […] of ADB per assay (i.e. per well of a 96 well plate) • 2. Add 10 ml of 0.5 mM cold ATP and 75 mM magnesium chloride in ADB. • 3. Add 2 ml of c-Raf (0.4U/assay), in conjunction with 1.6ml non-active MEK1 ([…]). • 4. Add 4 ml of non-active GST-p42 MAP Kinase (1.0 mg/assay). • 5. Incubate for 60 minutes at 30°C in a shaking incubator. • 6. Transfer this mixture to an anti-GST Ab coated 96 well plate (Nunc Immunosorb plates coated o/n with a-GST, then blocked with Pierce Superblock). • 7. Incubate for 60 minutes at 30°C in a shaking incubator Wash 3X with TBST, add Anti-Phospho MAPK (Sigma) (1:3000) • 6. Incubate for 60 minutes at 30°C in a shaking incubator • 7. Wash 3X with TBST, add Anti-Mouse Ab / Europium conjugate (Wallac) (1:500) • 8. Incubate for 60 minutes at 30°C in a shaking incubator • 9. Wash 3X with TBST, Read plates in Wallac Victor model Plate Reader. • 10. Collect data analyze in Excel for single point and IC50 determinations.
Typically Raf-1 assay is run at compound concentrations from 10 µM to 1 nM in half log dilutions. (% inhibition is determined for each compound concentration).

[2] = system: Rat2 fibroblasts stably transformed with v-Src/Hu c-Src fusion gene; experiment: Anchorage independent Src-transformed fibroblast proliferation test procedure; assay type: cell-based; conditions: Rattus norvegicus; for IC50: the 3rd table c6, (a)-(d) = average of two to five runs, read-out: Src TF prolif IC50
Excerpt: Anchorage Independent Src-transformed Fibroblast Proliferation Test Procedure: Rat2 fibroblasts stably transformed with a plasmid containing a CMV promotor controlled v-Src/Hu c-Src fusion gene in which the catalytic domain of human c-Src is inserted in place of the v-Src catalytic domain in the v-Src gene are used for the measurement of src dependent suspension growth.

[3] = target: T2, p60^c-src (Src) (Homo sapiens, UniProt P12931); experiment: Src kinase test procedure (Elisa format); assay type: biochemical
T2 construct: purchased Upstate Biotechnologies
T2 sequence (P12931 whole entry): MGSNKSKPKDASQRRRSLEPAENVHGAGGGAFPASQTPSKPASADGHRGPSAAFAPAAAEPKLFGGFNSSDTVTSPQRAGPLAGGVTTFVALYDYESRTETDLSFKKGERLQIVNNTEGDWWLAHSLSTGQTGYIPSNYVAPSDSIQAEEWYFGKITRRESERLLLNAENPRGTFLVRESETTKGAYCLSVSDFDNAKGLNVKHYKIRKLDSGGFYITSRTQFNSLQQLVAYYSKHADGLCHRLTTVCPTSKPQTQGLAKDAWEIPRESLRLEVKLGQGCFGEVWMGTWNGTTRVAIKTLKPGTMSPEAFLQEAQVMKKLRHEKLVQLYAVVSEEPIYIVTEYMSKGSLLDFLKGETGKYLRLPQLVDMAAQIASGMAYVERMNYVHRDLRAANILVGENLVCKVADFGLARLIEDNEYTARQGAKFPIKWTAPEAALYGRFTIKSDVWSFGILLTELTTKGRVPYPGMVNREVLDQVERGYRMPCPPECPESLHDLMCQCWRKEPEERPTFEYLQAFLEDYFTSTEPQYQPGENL
Procedure: Inhibitors of p60^c-src (partially purified preparation purchased from Upstate Biotechnologies) tyrosine kinase activity are analyzed in an Elisa format. […] HRP-conjugated anti-phosphotyrosine is used to detect phosphorylated peptide via a color reaction. Conditions recommended by the manufacturer are employed.
Reaction conditions: Five microliter aliquots of each compound prepared fresh at the time of the assay are added as a solution in 10mM HEPES pH 7.5, 10% DMSO to the reaction well. Thirty-five microliters of reaction mix containing Src, buffer and peptide/bovine serum albumin mix are added to the compound wells and incubated at 30°C for 10 minutes (reaction buffer: 50mM TrisHCl pH 7.5, 10mM MgCl2, 0.1mM EGTA, 0.5mM Na3VO4). The reaction is started by addition of 10 microliters of ATP, incubated at 30°C for 1 hour, and stopped by addition of 20 microliters of 0.5M EDTA. The reaction mixture with the phosphorylated peptide is then transferred to a streptavidin-coated microtiter plate (provided in the kit) and allowed to bind for 20 minutes. Unbound peptide and reaction mixture is decanted and the plate is washed with PBS six times. Horseradish peroxidase-conjugated phosphotyrosine antibody supplied in the kit is incubated with the plate for one hour, then decanted. The plate is again washed with PBS six times.

T1 sequence (P04049 whole entry): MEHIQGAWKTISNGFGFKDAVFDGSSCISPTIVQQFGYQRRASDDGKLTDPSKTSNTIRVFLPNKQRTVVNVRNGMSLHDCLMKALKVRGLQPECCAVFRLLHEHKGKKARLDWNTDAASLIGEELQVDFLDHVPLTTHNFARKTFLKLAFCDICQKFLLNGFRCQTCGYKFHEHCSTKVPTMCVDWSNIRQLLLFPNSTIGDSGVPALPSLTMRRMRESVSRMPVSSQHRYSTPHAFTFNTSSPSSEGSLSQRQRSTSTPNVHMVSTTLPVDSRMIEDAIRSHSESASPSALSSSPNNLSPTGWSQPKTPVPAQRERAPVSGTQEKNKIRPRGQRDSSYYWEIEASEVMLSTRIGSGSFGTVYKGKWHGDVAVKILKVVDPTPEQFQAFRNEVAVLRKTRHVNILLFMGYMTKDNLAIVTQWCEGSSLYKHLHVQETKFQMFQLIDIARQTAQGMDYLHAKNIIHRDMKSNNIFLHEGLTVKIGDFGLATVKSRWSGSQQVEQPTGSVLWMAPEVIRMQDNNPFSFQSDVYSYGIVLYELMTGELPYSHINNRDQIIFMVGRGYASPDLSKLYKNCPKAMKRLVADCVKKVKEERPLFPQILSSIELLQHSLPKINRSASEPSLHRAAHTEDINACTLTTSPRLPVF

SMILES | IC50 [2] [nM] | other results
N#Cc1cnc2cc3ccccc3cc2c1Nc1ccc(Oc2ccccc2)cc1 [Example 3, 4-(4-Phenoxyanilino)benzo[g]quinoline-3-carbonitrile] | – | IC50 [1]: 90 nM
COc1cc(Nc2c(C#N)cnc3cc4c(cc23)ncn4CCN2CCOCC2)c(C)cc1Cl [Example 57, 8-(4-Chloro-5-methoxy-2-methylanilino)-3-[2-(4-morpholinyl)ethyl]-3H-imidazo[4,5-g]quinline-7-carbonitrile] | – | inhibition at 10 µM ([2]; @ dose 10 µM, read-out: Src TF prolif %Inh): 0%
COc1cc(Nc2c(C#N)cnc3c2sc2ccc([N+](=O)[O-])cc23)c(C)cc1Cl [Example 75, 4-(4-Chloro-5-methoxy-2-methylphenylamino)-8-nitrobenzo[4,5]thieno[3,2-b]pyridine-3-carbonitrile] | – | inhibition at 10 µM ([3]; dose 10 µM, read-out: Src %Inh): 0%
N#Cc1cnc2c(oc3ccccc32)c1Nc1ccc(Cl)cc1F [Example 86, 4-(4-Chloro-2-fluorophenylamino)benzo[4,5]furo[3,2-b]pyridine-3-carbonitrile] | – | Src %Inh ([3]; dose 10 µM): 46%; inhibition at 10 µM ([3]; dose 10 µM, read-out: Src %Inh): 54%
COc1ccc2cc3ncc(C#N)c(Nc4ccc(Cl)cc4Cl)c3cc2c1 [Example 103, 4-(2,4-Dichloroanilino)-7-methoxybenzo[g]quinoline-3-carbonitrile] | – | inhibition at 0.1 µM ([3]; read-out: Src %Inh): 30%
COc1ccc2cc3c(Nc4ccc(Cl)cc4Cl)c(C#N)cnc3cc2c1 [Example 104, 4-(2,4-dichloroanilino)-8-methoxybenzo[g]quinoline-3-carbonitrile] | – | inhibition at 0.1 µM ([3]; read-out: Src %Inh): 30%
COc1cc(Nc2c(C#N)cnc3cc4cc(OCCN5CCOCC5)c(OC)cc4cc23)c(Cl)cc1Cl [Example 129, 4-(2,4-dichloro-5-methoxyanilino)-7-methoxy-8-[2-(4-morpholinyl)ethoxy]benzo[g]quinoline-3-carbonitrile] | – | IC50 [1]: 300 nM
COc1cc(Nc2c(C#N)cnc3cc4cc(OCCCN5CCOCC5)c(OC)cc4cc23)c(Cl)cc1Cl [Example 157, 4-(2,4-dichloro-5-methoxyphenylamino)-7-methoxy-8-(3-morpholin-4-yl-propoxy)benzo[g]quinoline-3-carbonitrile] | 38 | –
COc1cc(Nc2c(C#N)cnc3cc4cc(OCCn5nccn5)c(OC)cc4cc23)c(Cl)cc1Cl [Example 158, 4-(2,4-Dichloro-5-methoxyphenylamino)-7-methoxy-8-(2-[1,2,3]triazol-2-yl-ethoxy)benzo[g]quinoline-3-carbonitrile] | 67 | –
COc1cc(Nc2c(C#N)cnc3cc4cc(OCCn5ccnn5)c(OC)cc4cc23)c(Cl)cc1Cl [Example 159, 4-(2,4-Dichloro-5-methoxyphenylamino)-7-methoxy-8-(2-[1,2,3]triazol-1-yl-ethoxy)benzo[g]quinoline-3-carbonitrile] | 73 | –
COc1cc(Nc2c(C#N)cnc3nc4cc(OC)c(OC)cc4cc23)c(Cl)cc1Cl [Example 165, 4-(2,4-Dichloro-5-methoxyanilino)-7,8-dimethoxybenzo[b] [1,8]naphthyridine-3-carbonitrile] | > 10000 | –
COc1cc(Nc2c(C#N)cnc3nc4cc(OCCCl)c(OC)cc4cc23)c(Cl)cc1Cl [Example 172, 8-(2-Chloroethoxy)-4-(2,4-dichloro-5-methoxyanilino)-7-methoxybenzo[b][1,8]naphthyridine-3-carbonitrile] | 1880 | –
COc1cc(Nc2c(C#N)cnc3nc4cc(OCCN5CCOCC5)c(OC)cc4cc23)c(Cl)cc1Cl [Example 173, 4-(2,4-Dichloro-5-methoxyanilino)-7-methoxy-8-[2-(4-morpholinyl)ethoxy]benzo[b][1,8]naphthyridine-3-carbonitrile] | 3740 | inhibition at 0.1 µM ([3]; read-out: Src %Inh): 33%
COc1cc2cc3c(Nc4ccc(Cl)cc4Cl)c(C#N)cnc3nc2cc1OC [Example 177, 4-(2,4-Dichloroanilino)-7,8-dimethoxybenzo[b] [1,8]naphthyridine-3-carbonitrile] | – | inhibition at 5 µM ([3]; dose 5 µM, read-out: Src %Inh): 30%
CCOc1cc2cc3ncc(C#N)c(Nc4cc(OC)c(Cl)cc4C)c3cc2cc1OCCN1CCOCC1 [Example 190, 4-(4-Chloro-5-methoxy-2-methylanilino)-8-ethoxy-7-[2-(4-morpholinyl)ethoxy]benzo[g]quinoline-3-carbonitrile] | 170 | –
CCOc1cc2cc3c(Nc4cc(OC)c(Cl)cc4C)c(C#N)cnc3cc2cc1OCCN1CCOCC1 [Example 191, 4-(4-Chloro-5-methoxy-2-methylanilino)-7-ethoxy-8-[2-(4-morpholinyl)ethoxy]benzo[g]quinoline-3-carbonitrile] | 22 | –
CCOc1cc2cc3c(Nc4cc(OC)c(Cl)cc4C)c(C#N)cnc3cc2cc1OCCN(CC(N)=O)CC(N)=O [Example 194, 2-(Carbamoylmethyl-{2-[4-(4-chloro-5-methoxy-2-methylphenylamino)-3-cyano-7-ethoxybenzo[g]quinolin-8-yloxy]-ethyl}-amino)-acetamide] | > 10000 | –
COc1cc(Nc2c(C#N)cnc3cc4cc(OC)c(OCCN5CCN(C)CC5)cc4cc23)c(Cl)cc1F [Example 201, 4-(2-Chloro-4-fluoro-5-methoxyanilino)-8-methoxy-7-[2-(4-methyl-1-piperazinyl)ethoxy]benzo[g]quinoline-3-carbonitrile] | 175 | –
COc1cc(Nc2c(C#N)cnc3cc4cc(OC)c(OCCN5CCN(C)CC5)cc4cc23)c(Cl)cc1C [Example 202, 4-(2-Chloro-5-methoxy-4-methylanilino)-8-methoxy-7-[2-(4-methyl-1-piperazinyl)ethoxy]benzo[g]quinoline-3-carbonitrile] | 68 | –
COc1cc(Nc2c(C#N)cnc3cc4cc(OCCN5CCN(C)CC5)c(OC)cc4cc23)c(Cl)cc1C [Example 203, 4-(2-Chloro-5-methoxy-4-methylanilino)-7-methoxy-8-[2-(4-methyl-1-piperazinyl)ethoxy]benzo[g]quinoline-3-carbonitrile] | 71 | –
COc1cc(Nc2c(C#N)cnc3cc4cc(OC)c(OCCN5CCC(O)CC5)cc4cc23)c(Cl)cc1C [Example 207, 4-(2-Chloro-5-methoxy-4-methylanilino)-8-methoxy-7-[2-(4-hydroxy-1-piperidinyl)ethoxy]benzo[g]quinoline-3-carbonitrile] | 929 | –
COc1cc(Nc2c(C#N)cnc3cc4cc(OC)c(OCCN5CCOCC5)cc4cc23)c(Cl)cc1F [Example 209, 4-(2-Chloro-4-fluoro-5-methoxyanilino)-8-methoxy-7-[2-(4-morpholinyl)ethoxy]benzo[g]quinoline-3-carbonitrile] | 309 | –
COc1cc(Nc2c(C#N)cnc3cc4cc(OCCN5CCN(C)CC5)c(OC)cc4cc23)c(Cl)cc1F [Example 211, 4-(2-Chloro-4-fluoro-5-methoxyanilino)-7-methoxy-8-[2-(4-methyl-1-piperazinyl)ethoxy]benzo[g]quinoline-3-carbonitrile] | 128 | –
